Laboratory results as given in article PMC7894603 (Science translational medicine, 2020).

Test system: Kras and Trp53 mutant (KP) lung adenocarcinoma mouse model
Type: in vivo
Conditions: IT, urine 60-120 min; for change of KP/control reporter difference over 5, 7.5 and 10.5 weeks: MeanNormPARKP/MeanNormPARControl

Sequence	change of KP/control reporter difference over 5, 7.5 and 10.5 weeks	urinary reporter in KP versus healthy mice (10.5 weeks after tumor initiation, mean-normalized PAR)
GGLGPKGQTGC [PP07]	amplified over time	
GGSGSKIIGGGC [PP11]	amplified over time	most significantly enriched reporter
